Measured values reported in patent US9012475B2, “Method for enhancing anti-tumor effect of a microtubule-targeting drug, and a method for treatment of tumor” (Taiho Pharmaceutical Co., Ltd., priority 2013, dated 2015).

Assays:
[1] = test system: human-derived uterus cancer cell strain HeLa-luc; settings: Group 1: paclitaxel 10 mg/kg iv day 1 alone, 5 rats
From the text: Cells (1×10^7) of human-derived uterus cancer cell strain HeLa-luc (manufactured by PerkinElmer Co., Ltd.) having a luciferase gene introduced therein were subcutaneously grafted to the right abdomens of nude rats. At the time the volume of a tumor developed from grafted cells reached about 200 mm^3, the rats were divided into groups each consisting of 5 rats according to stratified randomization such that each group had almost the same tumor volume. […] To Group 2 and 3, paclitaxel was administered and, on the next day, Compound 1 (30 mg/kg) was orally administered twice per day for one day or 4 days (sequential administration, see FIG. 1 (A), Sequential treatment). To the rats of Group 4 and 5, paclitaxel was administered and, on the same day, Compound 1 (30 mg/kg) was orally administered twice per day for 2 days or 4 days (concurrent administration, see FIG. 1 (B), Concurrent treatment). Compound 1 was suspended or dissolved in 0.5% (w/v) hydroxypropyl methyl cellulose (HPMC). Paclitaxel was dissolved in Cremophor EL and anhydrous ethanol, diluted with physiological saline so as to obtain a predetermined concentration and put in use.
The presence or absence of a therapeutic effect was determined by measuring the major axis and minor axis of a tumor with time and obtaining a tumor volume (TV), relative tumor volume (RTV) and T/C (%) value (average relative tumor volume ratio of the treatment group to the control group) on day 10 after initiation of administration according to the following expressions. Tumor volume (TV)={(major axis)×(minor axis)^2}/2 Relative tumor volume (RTVn) on measurement day (n)=TVn/TV1 T/C(%)={(average RTVn of treatment group)/(average RTVn of control group)}×100
TV1 represents tumor volume at the administration initiation time
Furthermore, an individual in which a tumor disappeared was specified as CR (complete remission/complete response) and the number of cases was obtained.

[2] = Evaluation of oral absorption property; assay type: in vivo, BALE/cA mice; settings: oral administration in 0.5% HPMC, plasma 0.5-6 hours, LCMS
Procedure: A test compound was suspended or dissolved in 0.5% HPMC and orally administered to BALE/cA mice. At the time points of 0.5, 1, 2, 4 and 6 hours after oral administration, blood was sampled from the back of the eye to obtain blood plasma. The concentration of the compound in the obtained blood plasma was measured by LCMS and evaluated for oral absorption property.

[3] = target: human Aurora A (Homo sapiens (Human), UniProt O14965); test: Measurement of Aurora A inhibitory activity (IMAP fluorescence polarization kinase assay); assay type: biochemical; settings: ATP 5 μM, 25° C., 50 minutes
Chain of human Aurora A (O14965 whole entry): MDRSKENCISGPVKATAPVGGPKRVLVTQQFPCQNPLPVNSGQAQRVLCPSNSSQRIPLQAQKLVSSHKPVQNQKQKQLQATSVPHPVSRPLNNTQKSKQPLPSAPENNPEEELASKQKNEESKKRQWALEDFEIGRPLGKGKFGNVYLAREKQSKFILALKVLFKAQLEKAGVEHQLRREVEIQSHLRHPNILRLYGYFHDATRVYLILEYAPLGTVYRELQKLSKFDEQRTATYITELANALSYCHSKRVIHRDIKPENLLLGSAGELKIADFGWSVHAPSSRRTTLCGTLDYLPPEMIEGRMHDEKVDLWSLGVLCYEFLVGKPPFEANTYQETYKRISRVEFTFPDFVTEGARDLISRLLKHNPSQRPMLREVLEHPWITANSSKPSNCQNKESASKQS
Procedure: (§1) The inhibitory activities of a test compound against Aurora A and Aurora B were measured according to the following method.
Complementary DNA of human Aurora A was fused with a histidine tag at the amino terminal, inserted into an expression vector and highly expressed in Escherichia coli BL21-CodonPlus (DE3)-RIL strain. After Escherichia coli was recovered and lysed, human Aurora A protein fused with a histidine tag was allowed to bind to a nickel chelate column and eluted by imidazole from the column. An active fraction was desalted by a desalting column to obtain purified enzyme.
In measuring inhibitory activity of the compound, first, the test compound was serially diluted by dimethylsulfoxide (DMSO). […] To the mixture, IMAP (registered trade mark) Progressive Binding Reagent diluted 500× with IMAP (registered trade mark) Progressive Binding Buffer A (manufactured by Molecular Devices) was added to terminate the kinase reaction. […] Based on the obtained fluorescence polarization degree, the amount of phosphorylation reaction was obtained.

[4] = target: human Aurora B (Homo sapiens (Human), UniProt Q96GD4); test: Measurement of Aurora B kinase activity; assay type: biochemical; settings: ATP 40 μM, 60 minutes
Chain of human Aurora B (Q96GD4 whole entry): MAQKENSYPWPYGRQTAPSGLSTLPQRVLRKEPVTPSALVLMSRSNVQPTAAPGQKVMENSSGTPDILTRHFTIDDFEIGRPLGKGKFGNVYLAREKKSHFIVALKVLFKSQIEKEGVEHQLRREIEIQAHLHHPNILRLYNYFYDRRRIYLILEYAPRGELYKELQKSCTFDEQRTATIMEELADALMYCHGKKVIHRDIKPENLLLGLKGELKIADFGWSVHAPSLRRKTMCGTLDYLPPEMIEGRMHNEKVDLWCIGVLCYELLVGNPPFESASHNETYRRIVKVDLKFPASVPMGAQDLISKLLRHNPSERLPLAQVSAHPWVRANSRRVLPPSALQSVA
Chain of human Aurora B (Q9NQS7 803-916 partner): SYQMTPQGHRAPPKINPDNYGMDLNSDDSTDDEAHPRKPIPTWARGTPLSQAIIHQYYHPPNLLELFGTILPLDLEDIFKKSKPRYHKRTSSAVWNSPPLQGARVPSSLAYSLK
Procedure: as §1
The concentration of the compound at which 50% of the phosphorylation reaction was suppressed was defined as IC50 value (nM).

| Structure (SMILES) | oral absorption property (concentration in blood plasma) [2] | IC50 [3] [nM] | IC50 [4] [nM] | number of CR cases [1] |
| --- | --- | --- | --- | --- |
| CC(=O)O[C@H]1C(=O)[C@@]2(C)[C@H]([C@H](OC(=O)c3ccccc3)[C@]3(O)C[C@H](OC(=O)[C@H](O)[C@@H](NC(=O)c4ccccc4)c4ccccc4)C(C)=C1C3(C)C)[C@]1(OC(C)=O)CO[C@@H]1C[C@@H]2O [paclitaxel, reference compound] |  |  |  | no CR cases |
| COc1ccc(CC2(C(=O)O)CCN(C(=O)c3cccc(Cl)c3F)CC2)nc1Nc1cc(C)[nH]n1 [Production Example 11, 1-(3-chloro-2-fluorobenzoyl)-4-((5-methoxy-6-(5-methyl-1H-pyrazol-3-ylamino)pyridin-2-yl)methyl)piperidine-4-carboxylic acid] | satisfactory oral absorption property | 0.6 | 930 |  |
| Cc1cc(Nc2nc(CC3(C(=O)O)CCN(C(=O)c4cccc(Cl)c4F)CC3)ccc2F)n[nH]1 [Production Example 13, 1-(3-chloro-2-fluorobenzoyl)-4-((5-fluoro-6-(5-methyl-1H-pyrazol-3-ylamino)pyridin-2-yl)methyl)piperidine-4-carboxylic acid] | satisfactory oral absorption property | 0.4 | 180 |  |
| Cc1cc(Nc2nc(CC3(C(=O)O)CCN(C(=O)c4cccc(Cl)c4F)CC3)ccc2Cl)n[nH]1 [Production Example 12, 1-(3-chloro-2-fluorobenzoyl)-4-((5-chloro-6-(5-methyl-1H-pyrazol-3-ylamino)pyridin-2-yl)methyl)piperidine-4-carboxylic acid] | satisfactory oral absorption property | 0.4 | 260 |  |
| Cc1cc(Nc2nc(CC3(C(=O)O)CCN(C(=O)c4cccc(C(F)(F)F)c4F)CC3)ccc2F)n[nH]1 [Production Example 2, 1-(2-fluoro-3-trifluoromethylbenzoyl)-4-((5-fluoro-6-(5-methyl-1H-pyrazol-3-ylamino)pyridin-2-yl)methyl)piperidine-4-carboxylic acid] |  | 0.5 | 340 |  |
| CNC(=O)C1(Cc2ccc(F)c(Nc3cc(C)[nH]n3)n2)CCN(C(=O)c2cccc(Cl)c2F)CC1 [Production Example 14, 1-(3-chloro-2-fluorobenzoyl)-4-((5-fluoro-6-(5-methyl-1H-pyrazol-3-ylamino)pyridin-2-yl)methyl)-N-methylpiperidine-4-carboxyamide] |  | 0.9 | 460 |  |
| Cc1cc(Nc2nc(CC3(C(=O)NC4CC4)CCN(C(=O)c4cccc(Cl)c4F)CC3)ccc2F)n[nH]1 [Production Example 17, 1-(3-chloro-2-fluorobenzoyl)-N-cyclopropy1-4-((5-fluoro-6-(5-methyl-1H-pyrazol-3-ylamino)pyridin-2-yl)methyl)piperidine-4-carboxyamide] |  | 0.9 | 900 |  |
| Cc1cc(Nc2nc(CC3(C(=O)N4CCC4)CCN(C(=O)c4cccc(Cl)c4F)CC3)ccc2F)n[nH]1 [Production Example 19, azetidin-1-yl(1-(3-chloro-2-fluorobenzoyl)-4-((5-fluoro-6-(5-methyl-1H-pyrazol-3-ylamino)pyridin-2-yl)methyl)piperidine-4-yl)methanone] |  | 1 | 880 |  |

Second part, led by results:

| oral absorption property (concentration in blood plasma) [2] | IC50 [3] [nM] | IC50 [4] [nM] | Structure (SMILES) | number of CR cases [1] |
| --- | --- | --- | --- | --- |
|  | 0.8 | 390 | Cc1noc(C2(Cc3ccc(F)c(Nc4cc(C)[nH]n4)n3)CCN(C(=O)c3cccc(Cl)c3F)CC2)n1 [Production Example 29, (3-chloro-2-fluorophenyl)(4-((5-fluoro-6-(5-methyl-1H-pyrazol-3-ylamino)pyridin-2-yl)methyl)-4-(3-methyl-1,2,4-oxadiazol-5-yl)piperidine-1-yl)methanone] |  |
|  | 0.7 | 450 | Cc1cc(Nc2nc(CC3(c4nnc(C)o4)CCN(C(=O)c4cccc(Cl)c4F)CC3)ccc2F)n[nH]1 [Production Example 28, (3-chloro-2-fluorophenyl)(4-((5-fluoro-6-(5-methyl-1H-pyrazol-3-ylamino)pyridin-2-yl)methyl)-4-(5-methyl-1,3,4-oxadiazol-2-yl)piperidine-1-yl)methanone] |  |
|  | 0.5 | 190 | Cc1cc(Nc2nc(CC3(c4ncon4)CCN(C(=O)c4cccc(Cl)c4F)CC3)ccc2F)n[nH]1 [Production Example 24, (3-chloro-2-fluorophenyl)(4-((5-fluoro-6-(5-methyl-1H-pyrazol-3-ylamino)pyridin-2-yl)methyl)-4-(1,2,4-oxadiazol-3-yl)piperidine-1-yl)methanone] |  |
| satisfactory oral absorption property | 0.7 | 380 | Cc1cc(Nc2nc(CC3(c4noc(C)n4)CCN(C(=O)c4cccc(Cl)c4F)CC3)ccc2F)n[nH]1 [Production Example 22, (3-chloro-2-fluorophenyl)(4-((5-fluoro-6-(5-methyl-1H-pyrazol-3-ylamino)pyridin-2-yl)methyl)-4-(5-methyl-1,2,4-oxadiazol-3-yl)piperidine-1-yl)methanone] |  |
